Experimental data published in PubChem BioAssay AID1259411 (Chemical Carcinogenesis Research Information System (CCRIS), 2018).
Activity calls are given as the source filed them. No rule for the calls is given here.

Test system: rodent carcinogenicity bioassays, tumor incidence
Assay: CCRIS carcinogenicity studies
From the text: The CCRIS database contains chemical records with carcinogenicity, mutagenicity, tumor promotion, and tumor inhibition test results. It was developed by the National Cancer Institute (NCI). Data are derived from studies cited in primary journals, current awareness tools, NCI reports, and other sources. Test results have been reviewed by experts in carcinogenesis and mutagenesis.
CCRIS provides historical information from the years 1985 - 2011. It is no longer updated.
This is an archive assay for CCRIS carcinogenicity studies.

With `O=P(OC(CCl)CCl)(OC(CCl)CCl)OC(CCl)CCl` the carcinogen call (Species: RAT, Strain/Sex: SPRAGUE-DAWLEY CD/FEMALE, Route: ORAL, Dose: 0, 5, 20, 80 MG/KG/D IN FEED FOR 2 YR (STUDY DURATION: 2 YR), Dose: 0, 5, 20, 80 MG/KG/D IN FEED FOR 2 YR (STUDY DURATION: 2 YR), Tumor Site: Type of Lesion: ADRENAL GLAND: CORTICAL ADENOMA, KIDNEY: CORTICAL ADENOMA, LIVER: HEPATOCELLULAR ADENOMA, Tumor Site: Type of Lesion: ADRENAL GLAND: CORTICAL ADENOMA, KIDNEY: CORTICAL ADENOMA, LIVER: HEPATOCELLULAR ADENOMA) was “active; positive” and the carcinogen call (Species: RAT, Strain/Sex: SPRAGUE-DAWLEY CD/MALE, Route: ORAL, Dose: 0, 5, 20, 80 MG/KG/D IN FEED FOR 2 YR (STUDY DURATION: 2 YR), Dose: 0, 5, 20, 80 MG/KG/D IN FEED FOR 2 YR (STUDY DURATION: 2 YR), Tumor Site: Type of Lesion: KIDNEY: RENAL CORTICAL ADENOMA, LIVER: HEPATOCELLULAR ADENOMA, TESTES: INTERSTITIAL CELL TUMOR, Tumor Site: Type of Lesion: KIDNEY: RENAL CORTICAL ADENOMA, LIVER: HEPATOCELLULAR ADENOMA, TESTES: INTERSTITIAL CELL TUMOR) was “active; positive”.
`OC[C@H]1O[C@H](O[C@]2(CCl)O[C@H](CCl)[C@@H](O)[C@@H]2O)[C@H](O)[C@@H](O)[C@H]1Cl` was tested, and the carcinogen call (Species: MOUSE, Strain/Sex: CD-1/FEMALE, Route: ORAL, Dose: 0, 3000, 10,000, 30,000 PPM IN DIET FOR 104 WK (STUDY DURATION: 104 WK), Dose: 0, 3000, 10,000, 30,000 PPM IN DIET FOR 104 WK (STUDY DURATION: 104 WK)) was “inactive; negative”, the carcinogen call (Species: MOUSE, Strain/Sex: CD-1/MALE, Route: ORAL, Dose: 0, 3000, 10,000, 30,000 PPM IN DIET FOR 104 WK (STUDY DURATION: 104 WK), Dose: 0, 3000, 10,000, 30,000 PPM IN DIET FOR 104 WK (STUDY DURATION: 104 WK)) was “inactive; negative” and the carcinogen call (Species: RAT, Strain/Sex: SPRAGUE-DAWLEY/FEMALE, Route: ORAL, Dose: 0, 0.3, 1.0, 3.0% IN DIET FOR 104 WK (STUDY DURATION: 104 WK), Dose: 0, 0.3, 1.0, 3.0% IN DIET FOR 104 WK (STUDY DURATION: 104 WK)) was “inactive; negative”. The carcinogen call (Species: RAT, Strain/Sex: SPRAGUE-DAWLEY/MALE, Route: ORAL, Dose: 0, 0.3, 1.0, 3.0% IN DIET FOR 104 WK (STUDY DURATION: 104 WK), Dose: 0, 0.3, 1.0, 3.0% IN DIET FOR 104 WK (STUDY DURATION: 104 WK)) was “inactive; negative”.
`Nc1ccc(/C=C/c2ccc(N)c(S(=O)(=O)O)c2)c(S(=O)(=O)O)c1` was tested, and the carcinogen call (Species: MOUSE, Strain/Sex: B6C3F1/FEMALE, Route: ORAL, Dose: 0, 6250, 12500 PPM IN DIET FOR 103 WK (STUDY DURATION: 2 YR), Dose: 0, 6250, 12500 PPM IN DIET FOR 103 WK (STUDY DURATION: 2 YR)) was “inactive; negative”, the carcinogen call (Species: MOUSE, Strain/Sex: B6C3F1/MALE, Route: ORAL, Dose: 0, 6250, 12500 PPM IN DIET FOR 103 WK (STUDY DURATION: 2 YR), Dose: 0, 6250, 12500 PPM IN DIET FOR 103 WK (STUDY DURATION: 2 YR)) was “inactive; negative” and the carcinogen call (Species: RAT, Strain/Sex: F344/FEMALE, Route: ORAL, Dose: 0, 12500, 25000 PPM IN DIET FOR 103 WK (STUDY DURATION: 2 YR), Dose: 0, 12500, 25000 PPM IN DIET FOR 103 WK (STUDY DURATION: 2 YR)) was “inactive; negative”. The carcinogen call (Species: RAT, Strain/Sex: F344/MALE, Route: ORAL, Dose: 0, 12500, 25000 PPM IN DIET FOR 103 WK (STUDY DURATION: 2 YR), Dose: 0, 12500, 25000 PPM IN DIET FOR 103 WK (STUDY DURATION: 2 YR)) was “inactive; negative”.
In the case of `[K+]`, the carcinogen call (Species: RAT, Strain/Sex: F344/FEMALE, Route: ORAL, Dose: 0, 10, 100, 1000 PPM IN DRINKING WATER FOR 2 YR (STUDY DURATION: 2 YR), Dose: 0, 10, 100, 1000 PPM IN DRINKING WATER FOR 2 YR (STUDY DURATION: 2 YR), Tumor Site: Type of Lesion: SALIVARY GLAND: SQUAMOUS CELL CARCINOMA) is reported as “active; positive” and the carcinogen call (Species: RAT, Strain/Sex: F344/MALE, Route: ORAL, Dose: 0, 10, 100, 1000 PPM IN DRINKING WATER FOR 2 YR (STUDY DURATION: 2 YR), Dose: 0, 10, 100, 1000 PPM IN DRINKING WATER FOR 2 YR (STUDY DURATION: 2 YR), Tumor Site: Type of Lesion: SALIVARY GLAND: SQUAMOUS CELL CARCINOMA) is reported as “active; positive”.
`OB(O)O` was tested, and the carcinogen call (Species: MOUSE, Strain/Sex: B6C3F1/FEMALE, Route: ORAL, Dose: 0, 2500, 5000 PPM IN DIET FOR 103 WK (STUDY DURATION: 105 WK), Dose: 0, 2500, 5000 PPM IN DIET FOR 103 WK (STUDY DURATION: 105 WK)) was “inactive; negative” and the carcinogen call (Species: MOUSE, Strain/Sex: B6C3F1/MALE, Route: ORAL, Dose: 0, 2500, 5000 PPM IN DIET FOR 103 WK (STUDY DURATION: 105 WK), Dose: 0, 2500, 5000 PPM IN DIET FOR 103 WK (STUDY DURATION: 105 WK)) was “inactive; negative”.
For `C[C@@H]1O[C@@H]1Cl`, the carcinogen call (Species: MOUSE, Strain/Sex: ICR/FEMALE, Route: DERMAL, Dose: 10 MG IN 0.1 ML ACETONE 3/WK FOR LIFE, Tumor Site: Type of Lesion: INTEGUMENTARY SYSTEM (SKIN): PAPILLOMA, SQUAMOUS CELL CARCINOMA) was “active; positive”.
`Oc1ccc2ccccc2c1N=Nc1ccc(N=Nc2ccccc2)cc1` was tested, and the carcinogen call (Species: MOUSE, Strain/Sex: SWISS-WEBSTER/FEMALE, Route: DERMAL, Dose: 0, 1% IN 0.1 ML 0.1% SODIUM LAURYL SULFATE 1/WK FOR 18 MO (STUDY DURATION: 18 MO)) was “inactive; negative” and the carcinogen call (Species: MOUSE, Strain/Sex: SWISS-WEBSTER/MALE, Route: DERMAL, Dose: 0, 1% IN 0.1 ML 0.1% SODIUM LAURYL SULFATE 1/WK FOR 18 MO (STUDY DURATION: 18 MO)) was “inactive; negative”.
In the case of `CC(O)COC(C)(C)C` (stereo not given), the carcinogen call (Species: MOUSE, Strain/Sex: B6C3F1/FEMALE, Route: INHALATION, Dose: 0, 75, 300, 1200 PPM 6 HR/D, 5 D/WK FOR 104 WKS, Dose: 0, 75, 300, 1200 PPM 6 HR/D, 5 D/WK FOR 104 WKS, Tumor Site: Type of Lesion: LIVER: HEPATOCELLULAR ADENOMA, CARCINOMA OR HEPATOBLASTOMA) is reported as “active; positive”, the carcinogen call (Species: MOUSE, Strain/Sex: B6C3F1/MALE, Route: INHALATION, Dose: 0, 75, 300, 1200 PPM 6 HR/D, 5 D/WK FOR 104 WKS, Dose: 0, 75, 300, 1200 PPM 6 HR/D, 5 D/WK FOR 104 WKS, Tumor Site: Type of Lesion: LIVER: HEPATOCELLULAR ADENOMA, CARCINOMA OR HEPATOBLASTOMA) is reported as “active; positive” and the carcinogen call (Species: RAT, Strain/Sex: F344/N/FEMALE, Route: INHALATION, Dose: 0, 75, 300, 1200 PPM 6 HR/D, 5 D/WK FOR 104 WKS, Dose: 0, 75, 300, 1200 PPM 6 HR/D, 5 D/WK FOR 104 WKS) is reported as “inactive; negative”. The carcinogen call (Species: RAT, Strain/Sex: F344/N/MALE, Route: INHALATION, Dose: 0, 75, 300, 1200 PPM 6 HR/D, 5 D/WK FOR 104 WKS, Dose: 0, 75, 300, 1200 PPM 6 HR/D, 5 D/WK FOR 104 WKS, Tumor Site: Type of Lesion: NO STATISTICALLY SIGNIFICANT INCREASE IN TUMORS BUT KIDNEY TUBULE TUMORS INCREASED SLIGHTLY) was “equivocal”.
`CCCCN(CC)c1c([N+](=O)[O-])cc(C(F)(F)F)cc1[N+](=O)[O-]` was tested, and the carcinogen call (Species: Mouse, Strain/Sex: B6C3F1/Female, Route: Oral, Dose: 0, 0.005, 0.03, 0.15% in diet for 2 yrs in 2 replicates of 30 mice/sex/group, Dose: 0, 0.005, 0.03, 0.15% in diet for 2 yrs in 2 replicates of 30 mice/sex/group) was “inactive; negative; slight but not statistically elevated incidence of total neoplastic tu”, the carcinogen call (Species: Mouse, Strain/Sex: B6C3F1/Male, Route: Oral, Dose: 0, 0.005, 0.03, 0.15% in diet for 2 yrs in 2 replicates of 30 mice/sex/group, Dose: 0, 0.005, 0.03, 0.15% in diet for 2 yrs in 2 replicates of 30 mice/sex/group) was “inactive; negative; slight but not statistically elevated incidence of total neoplastic t” and the carcinogen call (Species: Rat, Strain/Sex: CDF (F344)CrlBR/Female (50/sex/group), Route: Oral, Dose: 0, 10, 100, 2500, 5000 ppm (about 0; 0.7; 6.8; 168; 331 mg/kg/day ) in diet for 104 wks, Dose: 0, 10, 100, 2500, 5000 ppm (about 0; 0.7; 6.8; 168; 331 mg/kg/day ) in diet for 104 wks, Tumor Site: Type of Lesion: Thyroid: thyroid follicular adenomas and carcinomas (0/50; 0/50; 1/50; 5/50; 4/50)) was “active; positive; ca dpr judged the study as showing possible adverse effects”. The carcinogen call (Species: Rat, Strain/Sex: CDF (F344)CrlBR/Male (50/sex/group), Route: Oral, Dose: 0, 10, 100, 2500, 5000 ppm (about 0; 0.5; 5.4; 136; 275 mg/kg/day ) in diet for 104 wks, Dose: 0, 10, 100, 2500, 5000 ppm (about 0; 0.5; 5.4; 136; 275 mg/kg/day ) in diet for 104 wks, Tumor Site: Type of Lesion: Thyroid: thyroid follicular adenomas and carcinomas (1/50; 1/50; 7/50; 8/50) Liver: Hepatocellular tumors (primari) was “active; positive; ca dpr judged the study as showing possible adverse effects”.
